Experimental data reported in PMC11217935, “Facile Halogenation of Antimicrobial Peptides As Demonstrated by Producing Bromotryptophan-Labeled Nisin Variants with Enhanced Antimicrobial Activity” (Journal of Natural Products, 2024).
Converted amounts (≈) assume the structure as drawn.

Key:
[1] = test system: Staphylococcus aureus LMG15975 (MRSA); assay: MIC, broth microdilution; assay type: cell-based; conditions: one of two tested pathogens (S. aureus LMG15975 MRSA), WHO priority pathogen; compared with wild-type nisin
Experimental: (§1) MIC values were determined using broth microdilution according to standard guidelines.[42] The inoculum was adjusted to approximately 5 × 10^5 CFU/mL, and the MIC was defined as the lowest concentration of antimicrobial compound with no visible growth after overnight incubation at 37 °C (or at 30 °C for L. lactis strain).

Bacillus cereus CH-85 = assay: MIC, broth microdilution; assay type: cell-based; conditions: one of two tested pathogens (B. cereus CH-85); compared with wild-type nisin
Experimental: as §1

[2] = Spot-on-lawn assay to test lipid II binding; assay type: cell-based, Bacillus cereus; conditions: B. cereus CH-85 lawn on LB agar; lipid II (600 μM, 2 μL per Figure 6; 0.8 mol/L, 2 μL per method) spotted at edge of halo; overnight 37 °C; preliminary results
Experimental: A 0.1% (v/v) inoculum of B. cereus CH-85 from an overnight culture was added to 1.5% (w/v) LB agar at 45 °C, and 10 mL of the mixture was poured onto a plate. The binding of the peptide to lipid II was evaluated by spotting purified lipid II ([…], 2 μL)[38],[41] at the edge of the 0.2 mg antibiotic inhibition halo. Specifically, 5 μL of the antibiotic was loaded onto the agar plate, and after drying, the lipid II solution was spotted at the edge of the inhibition halo. The plate was then incubated overnight at 37 °C.

[3] = test system: Lactococcus lactis MG1363; assay type: cell-based; conditions: for fold decrease in activity: L. lactis (MG1363), from MIC values, I1W compared with nisin, analogue-labelled variants by the numbers compared with Trp variant
Experimental: as §1

B. cereus CH-85 = assay: Time-kill assay; assay type: cell-based, Bacillus cereus; conditions: within 3 h, 5 × 10^5 cells per mL, 37 °C, triplicate
Experimental: The antimicrobial activity of nisin and its brominated variants was evaluated against B. cereus CH-85 using a previously described procedure.[38],[41] Briefly, an overnight culture of B. cereus was diluted 50-fold in LB medium and grown at 37 °C with aeration until reaching an OD600 of 0.5, after which the cell concentration was adjusted to 5 × 10^5 cells per mL. Bacteria were then exposed to different concentrations of nisin or brominated nisin variant in culture tubes at 37 °C and 180 rpm, with untreated bacteria serving as a negative control. At desired time points, 50 μL aliquots were taken, and 10-fold serial dilutions were plated on LB agar plates. After overnight incubation at 37 °C, colonies were counted, and colony-forming units (CFU) per milliliter were calculated. Each experiment was performed in triplicate.

[4] = test system: Enterococcus faecium LMG16003 (VRE); assay: MIC, broth microdilution; assay type: cell-based; conditions: E. faecium; from MIC values
Experimental: as §1

[5] = test system: Staphylococcus aureus LMG10147; assay: MIC, broth microdilution; assay type: cell-based; conditions: S. aureus (text: 'S. aureus' / 'one S. aureus'; by Table 2 LMG10147); from MIC values
Experimental: as §1

[6] = test system: Enterococcus faecalis LMG16216 (VRE); assay: MIC, broth microdilution; assay type: cell-based; conditions: E. faecalis; from MIC values
Experimental: as §1

Molecule | effect of externally added purified lipid II on antimicrobial activity (inhibition halo) [2] | MIC [3] | fold decrease in activity [5] | fold decrease in activity [3] | further results
C=C(NC(=O)[C@@H](NC(=O)[C@H](Cc1c[nH]cn1)NC(=O)[C@@H](NC(=O)[C@H](CO)NC(=O)[C@@H]1CS[C@@H](C)[C@H]2NC(=O)[C@H](C)NC(=O)[C@H](NC(=O)[C@H](CCCCN)NC(=O)[C@H](CCSC)NC(=O)[C@H](CC(N)=O)NC(=O)[C@@H]3CS[C@@H](C)[C@@H](NC(=O)[C@H](CCCCN)NC(=O)[C@@H]4CS[C@@H](C)[C@@H](NC(=O)[C@@H]5CSC[C@@H](NC(=O)/C(=C/C)NC(=O)[C@@H](N)Cc6c[nH]c7ccc(Br)cc67)C(=O)N[C@@H]([C@@H](C)CC)C(=O)NC(=C)C(=O)N[C@@H](CC(C)C)C(=O)N5)C(=O)N5CCC[C@H]5C(=O)NCC(=O)N4)C(=O)NCC(=O)N[C@@H](C)C(=O)N[C@@H](CC(C)C)C(=O)N[C@@H](CCSC)C(=O)NCC(=O)N3)[C@H](C)SC[C@H](NC2=O)C(=O)N[C@@H](Cc2c[nH]cn2)C(=O)N1)[C@@H](C)CC)C(C)C)C(=O)N[C@@H](CCCCN)C(=O)O [nisin I1W 5BrTrp] | decreased the antimicrobial activity | 0.04 µg/mL (≈ 0.0114 µM) | – | – | fold improvement in antimicrobial activity [1]: 2 fold; fold improvement in antimicrobial activity (Bacillus cereus CH-85): 2 fold; killing activity (viability of exponential culture) (B. cereus CH-85; B. cereus CH-85, 2.5 μg/mL (lowest concentration tested)): only slight killing; killing activity (viability of exponential culture) (B. cereus CH-85; B. cereus CH-85, 15 μg/mL): slower bactericidal activity than did nisin
C=C(NC(=O)[C@@H](NC(=O)[C@H](Cc1c[nH]cn1)NC(=O)[C@@H](NC(=O)[C@H](CO)NC(=O)[C@@H]1CS[C@@H](C)[C@H]2NC(=O)[C@H](C)NC(=O)[C@H](NC(=O)[C@H](CCCCN)NC(=O)[C@H](CCSC)NC(=O)[C@H](CC(N)=O)NC(=O)[C@@H]3CS[C@@H](C)[C@@H](NC(=O)[C@H](CCCCN)NC(=O)[C@@H]4CS[C@@H](C)[C@@H](NC(=O)[C@@H]5CSC[C@@H](NC(=O)/C(=C/C)NC(=O)[C@@H](N)Cc6c[nH]c7ccc(O)cc67)C(=O)N[C@@H]([C@@H](C)CC)C(=O)NC(=C)C(=O)N[C@@H](CC(C)C)C(=O)N5)C(=O)N5CCC[C@H]5C(=O)NCC(=O)N4)C(=O)NCC(=O)N[C@@H](C)C(=O)N[C@@H](CC(C)C)C(=O)N[C@@H](CCSC)C(=O)NCC(=O)N3)[C@H](C)SC[C@H](NC2=O)C(=O)N[C@@H](Cc2c[nH]cn2)C(=O)N1)[C@@H](C)CC)C(C)C)C(=O)N[C@@H](CCCCN)C(=O)O [nisin I1W 5OHTrp] | – | 0.08 µg/mL (≈ 0.0232 µM) | 2 fold | 2 fold | fold decrease in activity [4]: 2 fold
C=C(NC(=O)[C@@H](NC(=O)[C@H](Cc1c[nH]cn1)NC(=O)[C@@H](NC(=O)[C@H](CO)NC(=O)[C@@H]1CS[C@@H](C)[C@H]2NC(=O)[C@H](C)NC(=O)[C@H](NC(=O)[C@H](CCCCN)NC(=O)[C@H](CCSC)NC(=O)[C@H](CC(N)=O)NC(=O)[C@@H]3CS[C@@H](C)[C@@H](NC(=O)[C@H](CCCCN)NC(=O)[C@@H]4CS[C@@H](C)[C@@H](NC(=O)[C@@H]5CSC[C@@H](NC(=O)/C(=C/C)NC(=O)[C@@H](N)Cc6c[nH]c7cc(Br)ccc67)C(=O)N[C@@H]([C@@H](C)CC)C(=O)NC(=C)C(=O)N[C@@H](CC(C)C)C(=O)N5)C(=O)N5CCC[C@H]5C(=O)NCC(=O)N4)C(=O)NCC(=O)N[C@@H](C)C(=O)N[C@@H](CC(C)C)C(=O)N[C@@H](CCSC)C(=O)NCC(=O)N3)[C@H](C)SC[C@H](NC2=O)C(=O)N[C@@H](Cc2c[nH]cn2)C(=O)N1)[C@@H](C)CC)C(C)C)C(=O)N[C@@H](CCCCN)C(=O)O [nisin I1W 6BrTrp] | – | 0.08 µg/mL (≈ 0.0228 µM) | 2 fold | 2 fold | fold decrease in activity [6]: 2 fold
C=C(NC(=O)[C@@H](NC(=O)[C@H](Cc1c[nH]cn1)NC(=O)[C@@H](NC(=O)[C@H](CO)NC(=O)[C@@H]1CS[C@@H](C)[C@H]2NC(=O)[C@H](C)NC(=O)[C@H](NC(=O)[C@H](CCCCN)NC(=O)[C@H](CCSC)NC(=O)[C@H](CC(N)=O)NC(=O)[C@@H]3CS[C@@H](C)[C@@H](NC(=O)[C@H](CCCCN)NC(=O)[C@@H]4CS[C@@H](C)[C@@H](NC(=O)[C@@H]5CSC[C@@H](NC(=O)/C(=C/C)NC(=O)[C@@H](N)Cc6c[nH]c7ccccc67)C(=O)N[C@@H]([C@@H](C)CC)C(=O)NC(=C)C(=O)N[C@@H](CC(C)C)C(=O)N5)C(=O)N5CCC[C@H]5C(=O)NCC(=O)N4)C(=O)NCC(=O)N[C@@H](C)C(=O)N[C@@H](CC(C)C)C(=O)N[C@@H](CCSC)C(=O)NCC(=O)N3)[C@H](C)SC[C@H](NC2=O)C(=O)N[C@@H](Cc2c[nH]cn2)C(=O)N1)[C@@H](C)CC)C(C)C)C(=O)N[C@@H](CCCCN)C(=O)O [nisin I1W Trp] | – | 0.04 µg/mL (≈ 0.0117 µM) | – | 2 fold | –
daptomycin [reference compound] | maintained its antimicrobial activity | – | – | – | –
